For data set [1], the system named is B cells. In kind it is cell-based.
Data set [2] relates to LPS-induced serum TNF-α. Description: Endotoxemia model (LPS i.p.). It counts as in vivo, mice. The method, then:
A mouse endotoxemia model is used to screen agents of the invention for in vivo functional anti-inflammatory activity in a rapid manner. Female CD-1 mice are injected i.p. (ventral abdomen) with 583 µg LPS. mRNA and protein levels of TNF-α, IFN-γ, IL-4 and MCP-1 and other markers of the inflammatory response are then determined. Thirty minutes prior to LPS administration, the animals were administered one of three different doses of CRD-Leu4Ile11Cys13peptide 3(3-12)[MCP-1] as an intravenous loading dose and a subcutaneous bolus dose (on dorsum). PBS treated animals with and without LPS administration were positive and negative controls. Two hours later, animals were euthanized and serum collected. Serum was separated from the cell pellet and frozen until ELISA analysis of cytokine levels. Lung and liver samples were collected for mRNA analyses and histopathology. […] Serum levels and mRNA levels of IL-4, IFN-γ and MCP-1 are also determined.
Each animal received a pretreatment (200 ul) by sub-cutaneous injection into the scruff at the back of the neck. All pre-treatment agents were administered at 1 mg per animal (approximately 40-50 mg/kg). After 30-45 minutes, animals in groups 2 through 6 received 750 µg bacterial lipopolysaccharide (LPS) in 300 µl PBS by intraperitoneal injection. Animals in group 1 received PBS vehicle alone.
After 3 hours (2 hours post-LPS), all animals were sacrificed by terminal anaesthesia followed by cardiac puncture. Approximately 1 ml of blood was withdrawn and serum was prepared. Blood was allowed to clot at room temperature for approximately 2 hours, then the clot was spun out and the serum aliquoted and stored at -20°C until tested. Serum from each animal was assayed in duplicate for TNF-α using the Quantikine M kit (R&D Systems) calibrated by interpolation of the standard curve.

Data set [3] in a line: Acute and 7-day repeat dose toxicity study. It counts as in vivo, rat. The source says: That is, all animals remained clinically normal throughout.
The test system of data set [4] is MCP-1- and LPS-induced dermal inflammation. Description: Dermal inflammation model (intradermal MCP-1 / LPS). Conditions: for MCP-1 induced recruitment of monocyte/macrophages in skin (in words): systemic treatment before intradermal MCP-1. In kind it is in vivo, rat. As for the experimental part:
To assess the efficacy of an agent of the invention in the prevention of lipopolysaccharide (LPS)- and MCP-1-induced dermal inflammation in the rat, three different doses of CRD-Leu4Ile11Cys13peptide 3(3-12)[MCP-1] were administered. An inflammatory response was elicited by intradermal injection (ventral abdomen) of either 500 ng MCP-1 or 100 ng MCP-1 along with endotoxin-free phosphate-buffered saline vehicle (as a negative control) and bacterial lipopolysaccharide (LPS; as a positive control). Each substance was injected at a different site. The results obtained from animals were compared to CRD-Leu4Ile11Cys13 peptide 3(3-12)[MCP-1] treated, and PBS (diluent control) treated, animals. Thirty minutes prior to intradermal agonist administration, the animals received an intravenous loading dose (3, 30 or 300 mg) and a subcutaneous depot dose (0.1, 1 or 10 mg) (on dorsum) of the pan-chemokine inhibitor CRD-Leu4Ile11Cys13peptide 3(3-12)[MCP-1] (see, for example, Figure 12). Animals were sacrificed at 20-24 hours post injection. Serum and urine were collected. The intradermal sites of agonist injection were collected, bisected and the extent of the inflammatory response was assessed by histopathology and quantitative immunofluorescence (fixed and frozen) (for example, following MCP-1 injection, the number of monocyte/macrophages in the skin was determined using the anti-CD14 (MCA342 from Serotec; clone ED2) at 3 µg/ml overnight at 4°C. The second antibody was rat anti-mouse FITC (415-096-100 from Jackson ImmunoResearch) at 28 µg/ml for 6 hours at room temperature). In addition, toxicity of CRD-Leu4Ile11Cys13peptide 3(3-12)[MCP-1] was assessed by collection of the following tissue samples in 10% neutral buffered formalin for histologic analysis: lung, liver, kidney, spleen, thymus, heart, and antagonist (test agent) injection site.
Although MCP-1 is fairly specific as a monocyte/macrophage chemoattractant, dermal injection of LPS induces recruitment of a broader range of leukocytes, including T- and B-cells and neutrophils. Specific antibodies to rat B-cells (MCA 1432 from Serotec) were used at 10 µg/ml overnight at 4°C to determine whether CRD-Leu4Ile11Cys13 peptide 3(3-12)[MCP-1] affected the recruitment of this leukocyte subpopulation. Secondary antibody was anti-mouse FITC (415-096-100 from Jackson ImmunoResearch, as above).
(10 mg in 200 µl subcutaneous). Thirty minutes later, PBS, 50 ng LPS and 500 ng MCP-1 were injected into three separate sites on the ventral abdomen of each rat. Animals were sacrificed 24 hours later and the intradermal site was excised, and frozen in OCT embedding media. Five µm sections were collected from each rat intradermal site and stored at -20°C. The number of monocytes (anti-rat CD14, Serotec), T cells, neutrophils (anti-rat granulocytes, Harlan Seralab), B-lymphocytes (anti-rat B cells, Serotec), and MCP-1, IL-8, and TNF-α (anti-mouse TNF-α, R and D Systems) were measured. Eight test sections and two control sections were stained at each site for each animal through a distance of 2.5 mm. The median percentage area was determined for each animal and for each group using NIH image, as the largest variability of staining was between sections rather than in any one section.

Positions of bridges follow the written chain, without caps; N, C: chain ends. Non-standard residues stand in square brackets, D forms with d. Residues, ends and D or L forms follow the SMILES beside them.

With `CC[C@@H](C)[C@H]1NC(=O)[C@@H](CCC(N)=O)NC(=O)[C@H](N)CSSC[C@H](C(N)=O)NC(=O)[C@@H](CC(C)C)NC(=O)[C@@H](CC(=O)O)NC(=O)[C@H]2CCCN2C(=O)[C@@H](CCCCN)NC(=O)[C@@H](CCC(N)=O)NC(=O)[C@@H](CCCCN)NC(=O)[C@@H](Cc2c[nH]c3ccccc23)NC1=O` (H-[dC][dQ][dI][dW][dK][dQ][dK][dP][dD][dL][dC]-NH2; disulfide 1-11), the “proliferation of B cells to tetanus toxoid (in words)” value in data set [1] is reported as “no effect”. Besides, in data set [2] (mouse, in vivo), the “serum MCP-1 and liver MCP-1 RNA after LPS (in words)” value is on record as “no modulation”; the “serum TNF-α after LPS (in words)” value was “dose-dependent inhibition”. In addition, the “serum TNF-α after LPS (in words)” value in data set [2] (mouse, in vivo, listed as CRD-Leu4Ile11Cys13peptide 3(3-12)[MCP-1]) is reported as “dose dependent decrease”. In data set [2] (s.c.), the “half-maximal dose for inhibition of LPS-stimulated TNF-α” value was “approximately 100 µg per animal”. Moreover, in data set [3] (1 or 10 mg (5-50 mg/kg) i.v.), the “acute toxicity (in words)” value is on record as “no clinically detectable changes”. In data set [3] (subcutaneous osmotic mini-pump, about 43 µg/hr for 7 days (7.2 mg)), the “7-day repeat dose toxicity (in words)” value is recorded as “no dose dependent or clinically significant changes”. Also, in data set [4] (10 mg subcutaneous, 50 ng LPS), the “TNF-α, IL-8 and MCP-1 at the LPS intradermal site (in words)” value is listed as “substantially reduced”; the “median percentage area stained for neutrophils, monocytes, CD4+ T lymphocytes and B-lymphocytes at the LPS site (in words)” value is listed as “abolished”. In data set [4] (rat, in vivo), the “recruitment of B-cells to the site of the LPS injection (in words)” value is “substantially inhibited” and the “reduction in the number of monocyte/macrophages recruited in response to injected bacterial LPS” value was over 80%. Also, the “MCP-1 induced recruitment of monocyte/macrophages in skin (in words)” value in data set [4] was “completely abolished”. Further, in data set [4] (listed as CRD-Leu4Ile11Cys13peptide 3(3-12)), the “MCP-1 induced recruitment of monocyte/macrophages in skin (in words)” value is on record as “the inflammatory response is abolished”.

These data come from EP2386565A2, “Compounds and methods to inhibit or augment an inflammatory response” (Cambridge Enterprise Ltd., priority 1999, dated 2000).
